Here are results for 7 compounds from paper PMC8625051, “Wound Healing Metabolites from Peters’ Elephant-Nose Fish Oil: An In Vivo Investigation Supported by In Vitro and In Silico Studies” (Marine Drugs, 2021).

Format in all cases: biochemical
One experiment addresses T1, COX-1 (Ovis aries, UniProt P05979).
T1 construct: purchased Biovision
T1 sequence (P05979 25-600): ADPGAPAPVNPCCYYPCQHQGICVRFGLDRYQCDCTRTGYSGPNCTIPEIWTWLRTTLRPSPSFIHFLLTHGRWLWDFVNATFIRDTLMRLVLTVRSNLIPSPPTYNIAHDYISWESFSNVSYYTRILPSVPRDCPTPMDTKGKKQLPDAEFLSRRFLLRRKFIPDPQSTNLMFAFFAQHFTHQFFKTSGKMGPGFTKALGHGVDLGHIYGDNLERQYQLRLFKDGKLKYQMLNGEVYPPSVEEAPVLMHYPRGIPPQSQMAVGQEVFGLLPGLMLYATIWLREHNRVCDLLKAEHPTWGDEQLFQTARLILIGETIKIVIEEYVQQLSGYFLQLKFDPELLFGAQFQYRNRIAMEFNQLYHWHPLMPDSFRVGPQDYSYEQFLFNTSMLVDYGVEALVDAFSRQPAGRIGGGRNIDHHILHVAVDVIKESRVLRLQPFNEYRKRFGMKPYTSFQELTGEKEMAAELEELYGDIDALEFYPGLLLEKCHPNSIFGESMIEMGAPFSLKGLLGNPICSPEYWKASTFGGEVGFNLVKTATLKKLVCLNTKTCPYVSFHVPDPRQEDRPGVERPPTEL
The experiment can be described thus: In vitro COX-1 inhibitory assay (fluorometric screening kit, Biovision). How it is done:
(§1) The in vitro inhibitory assays of the isolated compounds against COX-1 and COX-2 were determined by using fluorometric-based screening kits (Biovision, Switzerland) according to the manufacturer’s protocol. These assays are based on the detection of the florescence produced by prostaglandin G2, i.e., the intermediate product produced by the COX-1 and -2 enzymes. The enzymes solutions were prepared by adding […] of dd. H2O to the lyophilized enzymes in the kit. The diluted COX cofactor was formulated by mixing the COX assay buffer (398 mL) and COX Cofactor (2 mL). 5 mL of arachidonic acid were added to 5 mL of NaOH and then diluted by 90 mL of double distilled H2O to produce dilute arachidonic acid/NaOH solution. Subsequently, all these prepared solutions were mixed to produce the reaction mixture ([…]). Different concentrations of the test compounds were added to the previous solution. The reaction mixtures were then incubated at 25 °C for 10 min. […] These assays of test compounds, blank, and reference inhibitors were carried out in triplicates. IC50 values were calculated by GraphPad software (version 7.0), where the percentage inhibitions were plotted versus the log concentrations. Dividing the IC50 calculated for […] by the IC50 calculated for […] was applied to determine the Selectivity index (SI).

Another experiment concerns the target T2, COX-2 (Homo sapiens, UniProt P35354).
T2 construct: purchased Biovision
T2 sequence (P35354 18-604): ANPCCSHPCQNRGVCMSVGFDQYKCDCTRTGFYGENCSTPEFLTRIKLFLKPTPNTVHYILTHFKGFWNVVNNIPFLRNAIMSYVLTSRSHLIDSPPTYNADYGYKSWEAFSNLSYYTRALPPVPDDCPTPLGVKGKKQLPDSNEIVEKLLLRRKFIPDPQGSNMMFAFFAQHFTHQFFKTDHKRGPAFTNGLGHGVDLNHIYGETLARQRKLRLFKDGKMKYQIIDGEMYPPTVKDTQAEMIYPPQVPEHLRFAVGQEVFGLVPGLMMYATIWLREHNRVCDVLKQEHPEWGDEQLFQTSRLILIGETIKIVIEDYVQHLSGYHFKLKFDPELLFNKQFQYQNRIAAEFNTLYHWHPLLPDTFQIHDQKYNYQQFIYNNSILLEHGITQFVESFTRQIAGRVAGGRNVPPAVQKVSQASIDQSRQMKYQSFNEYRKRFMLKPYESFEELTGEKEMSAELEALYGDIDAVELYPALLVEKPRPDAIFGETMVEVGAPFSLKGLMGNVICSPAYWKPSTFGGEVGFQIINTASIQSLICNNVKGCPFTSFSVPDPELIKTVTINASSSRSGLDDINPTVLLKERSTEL
The experiment can be described thus: In vitro COX-2 inhibitory assay (fluorometric screening kit, Biovision). The method, then:
as §1

Experiment [1] is described as follows: Hydrogen peroxide scavenging activity. How it is done:
The residual H2O2 was determined colorimetrically. Briefly, 20 µL of the sample was added to 500 µL of H2O2 and incubated for 10 min., at 37 °C. […] The optical density of the colored product was measured at 510 nm using ascorbic acid as a positive control. The percentage of H2O2 scavenging activity was calculated by using the following formula (Equation (1)). (1) Scavenging activity=A control – A sample/A control×100 IC50 of each sample was determined at four different concentrations using Graph pad prism 7 software.

Experiment [2] in a line: Superoxide radical scavenging activity. The method, then: The superoxide anion scavenging activity was measured as previously performed by […] et al., 2007 [57]. […] The reaction was initiated by adding 0.1 mL PMS solution (0.12 mM) to the mixture, incubated at 25 °C for 5 min., and the optical density was measured at 560 nm, compared to the reference ascorbic acid. The percentage inhibition was calculated using the following formula, Equation (2). (2) Superoxide scavenging activity=A control - A sample/A control×100 IC50 was calculated using Graph pad prism 7 software by performing the test at four different concentrations.

`CCCCCCCCCCCCCCCC(=O)O` [Compound 2, palmitic acid]: the IC50 against COX-1 and against COX-2 was greater than 100 µM each time.
Regarding `CC(C)CCC[C@@H](C)[C@H]1CC[C@H]2[C@@H]3CC=C4C[C@@H](O)CC[C@]4(C)[C@H]3CC[C@]12C` [Compound 5, cholesterol], the concentration for half-maximal inhibition (IC50) at COX-1 and on COX-2 was greater than 100 µM throughout.
`CCCCCCCCCCc1ccccc1O` [Compound 6, 2-decylphenol]: the half-maximal inhibitory concentration (IC50) against COX-1 and on COX-2 was greater than 100 µM in each case.
For `CCCCCCCC/C=C\CCCCCCCC(=O)O` [Compound 3, oleic acid], the half-inhibitory concentration (IC50) against COX-1 and against COX-2 was greater than 100 µM each time.
Consider `CCCCCC/C=C\CCCCCCCC(=O)O` [Compound 1, palmitoleic acid], for which the IC50 against COX-1 and on COX-2 was greater than 100 µM in each case.
As to `CCCCCCC=CCC=CCC=CCC=CCCCCC(=O)O` [Compound 4, 6,9,12,15-docosatetraenoic acid], the half-inhibitory concentration (IC50) on COX-1 is 18.5 ± 0.4 µM; on COX-2 it was 2.41 ± 0.2 µM. Moreover, the COX-2/COX-1 at COX-2 (selectivity index, ratio of IC50 values) was determined as 0.13.
In the case of `O=C1O[C@H]([C@@H](O)CO)C(O)=C1O` [ascorbic acid], in experiment [1], the “H2O2 scavenging IC50” value was 174.2 µg/mL. In addition, the “superoxide radical scavenging IC50” value in experiment [2] is on record as 164 µg/mL.
